Test results: patent EP0326329B1, “Quinazoline derivatives useful as insecticides” (Dow AgroSciences LLC, priority 1988, dated 1989)

Legend:
Assay type in all cases: in vivo
[1] = system: Erysiphe graminis tritici (powdery mildew); test: Greenhouse Test 1, foliar spray fungicide screen (POWD MDEW), host wheat; conditions: disease control rating, 400 ppm (+++ at 100 ppm)
[2] = system: Botrytis cinerea (gray mold); test: Greenhouse Test 1, foliar spray fungicide screen (GRAY MOLD), host grape berries; conditions: disease control rating, 400 ppm (+++ at 100 ppm)
[3] = system: Pseudoperonospora cubensis (downy mildew); test: Greenhouse Test 1, foliar spray fungicide screen (DOWN MDEW), host squash; conditions: disease control rating, 400 ppm (+++ at 100 ppm)
[4] = system: southern armyworm (Spodopetra eridania Cramer); test: Mite/insect screen, sprayed squash leaves (SAW); conditions: percent mortality; for mortality at 200 ppm / mortality at 400 ppm: Spodoptera eridania, read-out: SAW RESULTS %
Method in brief: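 For the armyworm test, two uninfested sprayed leaves were excised, once dry for an hour, and placed in a Petri dish holding larvae. Spray solutions came from an emulsifier-containing 50:50 acetone/alcohol formulation diluted with water and were applied to runoff.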

[5] = system: Puccinia recondita tritici (leaf rust); test: Greenhouse Test 1, foliar spray fungicide screen (LEAF RUST), host wheat; conditions: disease control rating, 400 ppm (+++ at 100 ppm)
[6] = system: melon aphids (Aphis gossypii Glover); test: Mite/insect screen, sprayed squash cotyledons (MA); conditions: percent mortality; for mortality at 200 ppm / mortality at 400 ppm: Aphis gossypii, read-out: MA RESULTS %; for mortality at 200 ppm: spray rate 200 ppm
Method in brief: (§1)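 Percent mortality and phytotoxicity are the read-outs, assessed after standard exposure periods. Test solutions, made in 50:50 acetone/alcohol with two sulfonate/nonionic emulsifier blends and diluted in water, are sprayed to runoff on both leaf surfaces, which then dry for one hour.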

[7] = system: Southern corn rootworm (Diabrotica undecimpuctata howardi Barber); test: Mite/insect screen, soil treatment (CRW); conditions: percent mortality, soil treatment; for mortality at 12 ppm / mortality at 24 ppm: Diabrotica, read-out: CRW RESULTS %
Method in brief: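 Compounds dissolved in acetone/alcohol (50:50) with Toximul R/S emulsifiers, diluted with water. Soil (15 g, with presoaked corn seed) treated with 1 mL test solution, dried 6–12 h, then five 2–3 instar larvae added; held at 23°C. Percent mortality and phytotoxicity scored after standard exposure periods.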

[8] = system: Pyricularia oryzae (rice blast); conditions: disease control rating, foliar spray, host rice; 400 ppm (+++ at 100 ppm)
[9] = system: Twospotted spider mites (Tetranychus urticae Koch); test: Mite/insect screen, sprayed squash cotyledons (SM); conditions: percent mortality; for mortality at 200 ppm / mortality at 400 ppm: Tetranychus urticae, read-out: SM RESULTS %; for mortality at 200 ppm: spray rate 200 ppm
Method in brief: as §1

Compound | POWD MDEW [1] | GRAY MOLD [2] | DOWN MDEW [3] | mortality at 200 ppm ([4]; spray rate 200 ppm) | mortality at 400 ppm ([4]; spray rate 400 ppm) | LEAF RUST [5] | mortality at 200 ppm [6] | mortality at 400 ppm ([6]; spray rate 400 ppm) | mortality at 12 ppm ([7]; CRW rate 12.00 ppm) | mortality at 24 ppm ([7]; CRW rate 24.00 ppm) | RICE BLAST [8] | mortality at 200 ppm [9] | mortality at 400 ppm ([9]; spray rate 400 ppm) | SAW RESULTS % ([4]; spray rate 200 ppm) | CRW RESULTS % ([7]; CRW rate 12.00 ppm) | SAW RESULTS % ([4]; spray rate 400 ppm) | MA RESULTS % ([6]; spray rate 400 ppm) | CRW RESULTS % ([7]; CRW rate 24.00 ppm) | SM RESULTS % ([9]; spray rate 400 ppm)
Fc1cccc2c(NCCc3ccc(Cl)cc3)ncnc12 [Example 78, 8-fluoro-N-[2-(4-chlorophenyl)ethyl]-4-quinazolinamine] | + (+ = 20-89% control at 400 ppm) | - (- = 0-19% control at 400 ppm) | +++ (+++ = 90-100% control at 100 ppm) | 100% | 80% | +++ (+++ = 90-100% control at 100 ppm) | 0% | 0% | 0% | 100% | +++ (+++ = 90-100% control at 100 ppm) | 0% | 0% | – | – | – | – | – | –
CCC(COc1ncnc2c(F)cccc12)c1ccc(-c2ccccc2)cc1 (centres unmarked) [Example 197, 8-fluoro-4-[2-(1,1'-biphenyl)-4-ylbutoxy)quinazoline] | + (+ = 20-89% control at 400 ppm) | - (- = 0-19% control at 400 ppm) | - (- = 0-19% control at 400 ppm) | 0% | 0% | - (- = 0-19% control at 400 ppm) | 80% | 0% | 0% | 0% | + (+ = 20-89% control at 400 ppm) | 80% | 0% | – | – | – | – | – | –
Fc1cccc2c(OCCc3cccc(C(F)(F)F)c3)ncnc12 [Example 133, 8-fluoro-4-[2-[3-(trifluoromethyl)phenyl]ethoxy]quinazoline] | +++ (+++ = 90-100% control at 100 ppm) | - (- = 0-19% control at 400 ppm) | + (+ = 20-89% control at 400 ppm) | 0% | 0% | +++ (+++ = 90-100% control at 100 ppm) | – | 100% | 0% | 100% | +++ (+++ = 90-100% control at 100 ppm) | – | 100% | 0% | 0% | – | – | – | –
CC(C)Cc1ccc(C(C)COc2ncnc3c(F)cccc23)cc1 (centres unmarked) [Example 113, 8-fluoro-4-[2-[4-(2-methylpropyl)phenyl]propoxy]quinazoline] | + (+ = 20-89% control at 400 ppm) | - (- = 0-19% control at 400 ppm) | +++ (+++ = 90-100% control at 100 ppm) | 0% | 40% | +++ (+++ = 90-100% control at 100 ppm) | 100% | 0% | 0% | 0% | +++ (+++ = 90-100% control at 100 ppm) | 100% | 0% | – | – | – | – | – | –
CC(C)(C)c1ccc(CCCCOc2ncnc3ccccc23)cc1 [Example 178, 4-[4-[4-(t-butyl)phenyl]butoxy]quinazoline] | ++ (++ = 90-100% control at 400 ppm) | + (+ = 20-89% control at 400 ppm) | + (+ = 20-89% control at 400 ppm) | 0% | 0% | - (- = 0-19% control at 400 ppm) | 80% | 100% | 0% | 0% | - (- = 0-19% control at 400 ppm) | 40% | 100% | – | – | – | – | – | –
COc1ccc(CCOc2ncnc3c(F)cccc23)cc1 [Example 132, 8-fluoro-4-[2-(4-methoxyphenyl)ethoxy]quinazoline] | +++ (+++ = 90-100% control at 100 ppm) | - (- = 0-19% control at 400 ppm) | +++ (+++ = 90-100% control at 100 ppm) | 0% | 0% | +++ (+++ = 90-100% control at 100 ppm) | 80% | 0% | 0% | 0% | +++ (+++ = 90-100% control at 100 ppm) | 20% | 0% | – | – | – | – | – | –
CCc1ccc(CCOc2ncnc3ccccc23)cc1 [Example 65, 4-[2-(4-ethylphenyl)ethoxy]quinazoline] | +++ (+++ = 90-100% control at 100 ppm) | - (- = 0-19% control at 400 ppm) | +++ (+++ = 90-100% control at 100 ppm) | – | 0% | +++ (+++ = 90-100% control at 100 ppm) | – | 100% | – | 0% | +++ (+++ = 90-100% control at 100 ppm) | – | 100% | – | – | – | – | – | –
Clc1ccc(CCNc2ncnc3ccc(Br)cc23)cc1 [Example 37, N-[2-(4-chlorophenyl)ethyl]-6-bromo-4-quinazolinamine] | - (- = 0-19% control at 400 ppm) | - (- = 0-19% control at 400 ppm) | - (- = 0-19% control at 400 ppm) | 0% | 0% | - (- = 0-19% control at 400 ppm) | 0% | 0% | 0% | 0% | - (- = 0-19% control at 400 ppm) | 0% | 0% | – | – | – | – | – | –
[3-(3-methoxyphenyl)propyl]quinazoline [Example 72] | ++ (++ = 90-100% control at 400 ppm) | - (- = 0-19% control at 400 ppm) | ++ (++ = 90-100% control at 400 ppm) | – | – | +++ (+++ = 90-100% control at 100 ppm) | – | – | – | – | + (+ = 20-89% control at 400 ppm) | – | – | – | – | 100% | 0% | 0% | 0%
CC(C)Oc1cccc(CCOc2ncnc3ccccc23)c1 [Example 146, 4-[2-[3-(1-methylethoxy)phenyl]ethoxy]quinazoline] | ++ (++ = 90-100% control at 400 ppm) | + (+ = 20-89% control at 400 ppm) | +++ (+++ = 90-100% control at 100 ppm) | 0% | 0% | ++ (++ = 90-100% control at 400 ppm) | 100% | 80% | 0% | 0% | +++ (+++ = 90-100% control at 100 ppm) | 100% | 60% | – | – | – | – | – | –
